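Each compound was tested at five concentrations against cells in 96-well plates for 48 hours. Abbreviation: GI50, concentration required for 50% inhibition of growth. Definition used: TGI = concentration required for complete inhibition of growth.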
What was measured:
Experiment in all cases: NCI tumour cell line growth inhibition, 48 h
[1] = test system: HL-60(TB) leukemia
[2] = test system: M14 melanoma
[3] = test system: CAKI-1 renal
[4] = test system: HS 578T breast
[5] = test system: SK-MEL-5 melanoma
[6] = test system: OVCAR-3 ovarian
[7] = test system: T-47D breast
[8] = test system: K-562 leukemia
[9] = test system: NCI-H23 lung
[10] = test system: SF-539 CNS
[11] = test system: UACC-62 melanoma
[12] = test system: COLO 205 colon
[13] = test system: OVCAR-8 ovarian
[14] = test system: SNB-19 CNS
[15] = test system: 786-0 renal
[16] = test system: SF-295 CNS
[17] = test system: NCI/ADR-RES ovarian
[18] = test system: RPMI-8226 leukemia
[19] = test system: UACC-257 melanoma
[20] = test system: SW-620 colon
[21] = test system: RXF 393 renal
[22] = test system: SK-MEL-28 melanoma
[23] = test system: NCI-H522 lung
[24] = test system: HOP-62 NSCLC
[25] = test system: TK-10 renal
[26] = test system: OVCAR-5 ovarian
[27] = test system: SNB-75 CNS
[28] = test system: SN12C renal
[29] = test system: KM12 colon
[30] = test system: U251 CNS
[31] = test system: HCT-15 colon
[32] = test system: NCI-H460 lung
[33] = test system: MDA-MB-435
[34] = test system: MCF7 breast
[35] = test system: BT-549 breast
[36] = test system: HCT-116 colon
[37] = test system: PC-3 prostate
[38] = test system: HOP-92 NSCLC
[39] = test system: UO-31 renal
[40] = test system: IGROV1 ovarian
[41] = test system: SF-268 CNS
[42] = test system: SR leukemia
[43] = test system: ACHN renal
[44] = test system: DU-145 prostate
[45] = test system: MDA-MB-231 breast
[46] = test system: LOX IMVI melanoma
[47] = test system: A498 renal
[48] = test system: SK-MEL-2 melanoma
[49] = test system: A549 NSCLC
[50] = test system: EKVX NSCLC
[51] = test system: SK-OV-3 ovarian

**Q.** How did the GI50 [1] turn out when CSc1cc(N=Nc2nc3ccccc3s2)c2ccccc2c1O was run?
**A.** 0.906 µM

**Q.** And the TGI [1]?
**A.** 25.5 µM

**Q.** And the GI50 [2]?
**A.** 9.55 µM

**Q.** What about the TGI [2] of the same molecule?
**A.** 21.6 µM

**Q.** And the GI50 [3]?
**A.** 10.1 µM

**Q.** And the TGI [3]?
**A.** 20.3 µM

**Q.** What about the GI50 [4] of the same molecule?
**A.** 20.9 µM

**Q.** And the TGI [4]?
**A.** > 50 µM

**Q.** And the GI50 [5]?
**A.** 6.43 µM

**Q.** And the TGI [5]?
**A.** 13.3 µM

**Q.** And the GI50 [6]?
**A.** 7.89 µM

**Q.** And the TGI [6]?
**A.** 19.3 µM

**Q.** What about the GI50 [7] of the same molecule?
**A.** 3.64 µM

**Q.** And the TGI [7]?
**A.** > 50 µM

**Q.** What about the GI50 [8] of the same molecule?
**A.** 3.6 µM

**Q.** And the TGI [8]?
**A.** 15.2 µM

**Q.** And the GI50 [9]?
**A.** 10.5 µM

**Q.** What about the TGI [9] of the same molecule?
**A.** 27.9 µM

**Q.** And the GI50 [10]?
**A.** 0.0413 µM

**Q.** What about the TGI [10] of the same molecule?
**A.** 3.87 µM

**Q.** What about the GI50 [11] of the same molecule?
**A.** 5.41 µM

**Q.** What about the TGI [11] of the same molecule?
**A.** 11.9 µM

**Q.** What about the GI50 [12] of the same molecule?
**A.** 14.2 µM

**Q.** What about the TGI [12] of the same molecule?
**A.** > 50 µM

**Q.** What about the GI50 [13] of the same molecule?
**A.** 13.6 µM

**Q.** What about the TGI [13] of the same molecule?
**A.** 39 µM

**Q.** What about the GI50 [14] of the same molecule?
**A.** 9.59 µM

**Q.** What about the TGI [14] of the same molecule?
**A.** 25.7 µM

**Q.** What about the GI50 [15] of the same molecule?
**A.** 9.82 µM

**Q.** And the TGI [15]?
**A.** 18.4 µM

**Q.** What about the GI50 [16] of the same molecule?
**A.** 11.5 µM

**Q.** What about the TGI [16] of the same molecule?
**A.** 27.6 µM

**Q.** And the GI50 [17]?
**A.** 7.17 µM

**Q.** And the TGI [17]?
**A.** 20.7 µM

**Q.** And the GI50 [18]?
**A.** 2.51 µM

**Q.** What about the TGI [18] of the same molecule?
**A.** 25.6 µM

**Q.** And the GI50 [19]?
**A.** 11.6 µM

**Q.** And the TGI [19]?
**A.** 21.7 µM

**Q.** And the GI50 [20]?
**A.** 13.3 µM

**Q.** What about the TGI [20] of the same molecule?
**A.** 34.8 µM

**Q.** And the GI50 [21]?
**A.** 5.99 µM

**Q.** What about the TGI [21] of the same molecule?
**A.** 14.3 µM

**Q.** What about the GI50 [22] of the same molecule?
**A.** 8.01 µM

**Q.** What about the TGI [22] of the same molecule?
**A.** 18.6 µM

**Q.** What about the GI50 [23] of the same molecule?
**A.** 1.82 µM

**Q.** And the TGI [23]?
**A.** 13.1 µM

**Q.** What about the GI50 [24] of the same molecule?
**A.** 10.2 µM

**Q.** What about the TGI [24] of the same molecule?
**A.** 20 µM

**Q.** What about the GI50 [25] of the same molecule?
**A.** 12.6 µM

**Q.** And the TGI [25]?
**A.** 28.7 µM

**Q.** And the GI50 [26]?
**A.** 16.1 µM

**Q.** And the TGI [26]?
**A.** 28.7 µM

**Q.** What about the GI50 [27] of the same molecule?
**A.** 0.0869 µM

**Q.** What about the TGI [27] of the same molecule?
**A.** 11.9 µM

**Q.** And the GI50 [28]?
**A.** 6.1 µM

**Q.** What about the TGI [28] of the same molecule?
**A.** 12.9 µM

**Q.** And the GI50 [29]?
**A.** 5.35 µM

**Q.** What about the TGI [29] of the same molecule?
**A.** 28.7 µM

**Q.** And the GI50 [30]?
**A.** 9.03 µM

**Q.** What about the TGI [30] of the same molecule?
**A.** 19.4 µM

**Q.** And the GI50 [31]?
**A.** 8.31 µM

**Q.** What about the TGI [31] of the same molecule?
**A.** 20.2 µM

**Q.** And the GI50 [32]?
**A.** 7.83 µM

**Q.** What about the TGI [32] of the same molecule?
**A.** 17.6 µM

**Q.** What about the GI50 [33] of the same molecule?
**A.** 11.1 µM

**Q.** And the TGI [33]?
**A.** 23.9 µM

**Q.** And the GI50 [34]?
**A.** 9.51 µM

**Q.** What about the TGI [34] of the same molecule?
**A.** 28.8 µM

**Q.** What about the GI50 [35] of the same molecule?
**A.** 6.28 µM

**Q.** And the TGI [35]?
**A.** 14 µM

**Q.** What about the GI50 [36] of the same molecule?
**A.** 7.3 µM

**Q.** What about the TGI [36] of the same molecule?
**A.** 29.3 µM

**Q.** And the GI50 [37]?
**A.** 13.4 µM

**Q.** What about the TGI [37] of the same molecule?
**A.** > 50 µM

**Q.** And the GI50 [38]?
**A.** 10.1 µM

**Q.** And the TGI [38]?
**A.** > 50 µM

**Q.** And the GI50 [39]?
**A.** 7.61 µM

**Q.** What about the TGI [39] of the same molecule?
**A.** 15.9 µM

**Q.** What about the GI50 [40] of the same molecule?
**A.** 7.64 µM

**Q.** What about the TGI [40] of the same molecule?
**A.** 24.3 µM

**Q.** And the GI50 [41]?
**A.** 7.87 µM

**Q.** What about the TGI [41] of the same molecule?
**A.** 17.4 µM

**Q.** And the GI50 [42]?
**A.** 0.973 µM

**Q.** What about the TGI [42] of the same molecule?
**A.** 19.4 µM

**Q.** What about the GI50 [43] of the same molecule?
**A.** 6.57 µM

**Q.** And the TGI [43]?
**A.** 13.1 µM

**Q.** What about the GI50 [44] of the same molecule?
**A.** 9.16 µM

**Q.** And the TGI [44]?
**A.** 16.9 µM

**Q.** What about the GI50 [45] of the same molecule?
**A.** 6.97 µM

**Q.** And the TGI [45]?
**A.** 14.6 µM

**Q.** And the GI50 [46]?
**A.** 5.97 µM

**Q.** What about the TGI [46] of the same molecule?
**A.** 12.7 µM

**Q.** And the GI50 [47]?
**A.** 23.3 µM

**Q.** What about the TGI [47] of the same molecule?
**A.** 45.5 µM

**Q.** What about the GI50 [48] of the same molecule?
**A.** 8.41 µM

**Q.** And the TGI [48]?
**A.** 22 µM

**Q.** And the GI50 [49]?
**A.** 12.1 µM

**Q.** And the TGI [49]?
**A.** 28.1 µM

**Q.** And the GI50 [50]?
**A.** 7.2 µM

**Q.** What about the TGI [50] of the same molecule?
**A.** 16.4 µM

**Q.** And the GI50 [51]?
**A.** 10.7 µM

**Q.** And the TGI [51]?
**A.** 28.7 µM

Reference: PubChem BioAssay (NCI)
